# Measured values published in PMC9613470, “Diverse MarR bacterial regulators of auxin catabolism in the plant microbiome” (Nature Microbiology, 2022).
# Molecular target: T1, Enterobacter soli LF7 MarR_Es (Enterobacter soli, UniProt A0AAW8H3I9, A146S)
# T1 sequence (A0AAW8H3I9 1-157 A146S): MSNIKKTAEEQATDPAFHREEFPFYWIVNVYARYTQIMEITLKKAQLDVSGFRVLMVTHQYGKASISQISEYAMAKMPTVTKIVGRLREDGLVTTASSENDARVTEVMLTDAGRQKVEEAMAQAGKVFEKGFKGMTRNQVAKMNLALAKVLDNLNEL
# Test: ITC IAA binding to MarR_Es
# Conditions: 25 °C, IacR, read-out: KD1
# Protocol: All ITC measurements were performed at 25 °C using an Auto-ITC200 microcalorimeter (MicroCal/GE Healthcare). The buffer employed was 20 mM HEPES, pH 7.4, 50 mM NaCl and 0.5% dimethly sulfoxide (DMSO) for protein/ligand binding and 20 mM HEPES, pH 7.4 and 300 mM NaCl for DNA/protein binding experiments. For ligand binding experiments, the calorimetry cell (volume 200 ml) was loaded with MarR wild-type, mutant or homologue protein at a concentration of 50 μM. The syringe was loaded with a ligand concentration of 0.5 or 2 mM. […] A typical injection protocol included a single 0.2 μl first injection followed by 20 1.5 μl injections of the syringe sample into the calorimetry cell. The spacing between injections was kept at 180 s and the reference power at 8 μcal s^−1. The data were analysed using Origin for ITC version 7.0 software supplied by the manufacturer and fit well to a one-site binding model. Two independent ITC measurements were performed for each condition.
structure (smiles),measurement,value
"O=C(O)Cc1c[nH]c2ccccc12 [IAA, indole-3-acetic acid]",Kd,2910 ± 96 nM
